Test results taken from patent publication US11800867B2, “Methods of repelling biting arthropods, reducing pathogen spread and treating arthropod infestation” (priority 2016, dated 2023).
“Also recorded” adds a separate entry of the source.

Columns and labels:
Assay type in all cases: in vivo
[1] = tested on: Aedes aegypti mosquitoes; test: Choice design repellency test, treated collagen membrane-covered wells filled with warm blood (Example 1); conditions: 1% nootkatone compositions (ethanol and acetone based); probing recorded during 20 min
Method: In the following example, the effectiveness of 1% nootkatone compositions in repelling mosquitoes was determined in comparison with DEET in a choice design test.
Compositions of 1% nootkatone were formulated in either ethanol or acetone and coated onto collagen membrane-covered wells filled with warm blood.
Two hundred and fifty female mosquitoes aged 4-8 days were sucrose deprived for 18 hr and then introduced to the collagen membrane-covered wells. Mosquito probing of the treated collagen membranes was recorded every 2 min during a 20 min period.
Five replicates were performed. A 20% DEET composition was used as a positive control and an ethanol only solution served as a negative control.

[2] = tested on: dust mites (Dermatophagoides sp.); test: Treated filter paper knockdown (KD) and mortality trial (Example 4); conditions: Nootkatone 1% in ethanol on filter paper
Method: (§1) A laboratory trial was conducted to assess the efficacy of nootkatone applied to filter paper against aphids (Schizaphis gramium), dust mites (Dermatophagoides sp.), termites (Reticulitermes flavipes), deer ticks (Ixodes scapularis), biting midges (Culicoides sp.), fire ants (Solenopsis invicta), and mosquitoes (Aedes aegypti and Culex), in terms of knockdown (KD) and mortality. One concentration (1% in ethanol) of nootkatone was assessed for most species, but three concentrations (0.25%, 0.5%, and 1% in ethanol) were assessed for mosquitoes. A negative control group, consisting of filter paper treated with ethanol, was also assessed for comparison purposes for each species.
(§2) Test systems were introduced to treated filter paper, allowed to dry, and then introduced into treatment chamber, where treated arthropods were monitored at intervals up to 72 hours. If 100% mortality was obtained prior to 72 hours, the individual study was halted.
Deer Ticks and Dust mites—5 replicates of 10 ticks or 35 dust mites were tested per treatment. Envelopes made from treated 2.5 inch (6.35 cm) filter paper squares served as the containers. After the ticks or dust mites were placed inside the envelopes, and the openings were sealed using small binder clips.
(§3) Readings were discontinued if treated mortality reaches […], or control mortality exceeds 20%.

[3] = tested on: termites (Reticulitermes flavipes); test: as above; conditions: Nootkatone 1% in ethanol on filter paper
Method: as §1, §2
Termites—3 replicates of 10 termites were tested per treatment. One long glass tube with screened ends (to provide ventilation) was used for each test container. Test containers were placed into a larger container to prevent escapes, and were kept in darkness and at high humidity for the duration of the experiment. Filter papers were cut into strips and fitted inside the glass tubes. Two paper strips were pushed end to end to form one continuous strip, leaving a 2 mm gap running the entire length of the tube for viewing termite activity.
as §3

[4] = tested on: female Anopheles quadrimaculatus mosquitoes; test: In vitro membrane feeder repellency assay, probing of treated collagen membranes (Example 2); conditions: for Percent repellency: 1% Nootkatone in ethanol, 25 μL on collagen membrane, twenty minutes, average ± SE, n = 5
Description: (§4) A laboratory trial was required to evaluate the repellency of 1% Nootkatone against female Aedes aegypti, Culex quinquefasciatus, and Anopheles quadrimaculatus mosquitoes using an in vitro method.
(§5) Female adult laboratory reared Aedes aegypti, Culex quinquefasciatus, and Anopheles quadrimaculatus mosquitoes (susceptible) were obtained from Benzon Research in Carlisle, Pa. 250 mosquitoes were used per replicate (5 replicates per test, per species). Adult mosquitoes were 3-8 days old.
(§6) Nootkatone was diluted in ethanol and acetone (note that Nootkatone diluted in acetone was not tested against An. quadrimaculatus). A positive control consisting of 20% DEET in ethanol was prepared using stock solutions. Negative controls consisted of no treatment, and ethanol-only treatment.
(§7) The treatments were applied directly to prepared collagen membranes by pipetting 25 μL of the appropriate substance onto a membrane and spreading it evenly with the tip of the pipette.
(§8) Exposure container. A 30.5 cm×30.5 cm×30.5 cm rigid plastic frame supported by four, 4 cm high legs, with a sleeved entry on one side and a sliding door on the bottom.
(§9) Membrane feeder. Five wells (3 cm in diameter×8 mm in depth) in line on a hollow plastic block (6 cm wide×22 cm long×3 cm deep), which fits through the sliding door in the bottom of the exposure container. Hoses attached to each side of the block circulate heated water that is pumped from a water bath. The sliding door in the bottom of the exposure container covers and uncovers the wells in the membrane feeder, allowing mosquitoes to access the wells.
(§10) Test set-up. The membrane feeder was connected to a heated water bath, and warm water passed through the feeder via a circulating pump so that the wells were warmed to 89-95° F. Seventy-two (72) mg of ATP (disodium salt) were added to 26 mL of warmed citrated bovine blood, which was poured into the wells until they were completely full.
(§11) The collagen membranes were placed on vacuum greased wax paper for treatment. They were then treated as described above and left for five minutes to dry. After they dried, the membranes were placed over each of the wells (using vacuum grease as an adhesive), completely covering the blood.
(§12) Exposure to mosquitoes. The mosquitoes were released into the exposure container just prior to exposure to the membranes. The exposure container was then placed on the membrane feeder and the sliding door opened, allowing the mosquitoes to access the wells. The number of mosquitoes probing each membrane was recorded every two minutes for twenty minutes.
(§13) The above procedures were repeated until five replicates were completed. A new batch of 250 female mosquitoes and fresh blood were used for each replicate, and the wells were cleaned in between replicates. The position of the treatments was rotated for each replicate, so that each treatment was tested on each of the five wells.
(§14) Percent repellency was calculated for each replicate using the total number of probes with the following formula:
(§15) [formula] • where C=the total number of probes on the untreated well • and T=the total number of probes on the treated well
(§16) Average percent repellency and standard error were then calculated across all five replicates. Shapiro-Wilks tests were conducted to determine the normality of the data, based on total number of probes per replicate. Depending on normality, student t-tests (with concurrent F-tests for variance) or Mann-Whitney tests were then used to determine significance between the treatments.

[5] = tested on: female Culex quinquefasciatus mosquitoes; test: as above; conditions: for Percent repellency: 25 μL on collagen membrane, twenty minutes, average ± SE, n = 5
Description: as §4, §5, §6, §7, §8, §9, §10, §11, §12, §13, §14, §15, §16

[6] = tested on: female Aedes aegypti mosquitoes; test: as above; conditions: for Percent repellency: 25 μL on collagen membrane, twenty minutes, average ± SE, n = 5
Description: as §4, §5, §6, §7, §8, §9, §10, §11, §12, §13, §14, §15, §16

[7] = 1% Nootkatone diluted in ethanol and in acetone

C=C(C)[C@@H]1CCC2=CC(=O)C[C@@H](C)[C@]2(C)C1 [Nootkatone, nootkatone]
Average repellency compared with 20% DEET (FIG. 2) [1]: repellency similar to that of 20% DEET; also recorded: comparable repellency | Time required for greater than 90% killing [2]: 72 h | Means Affected ([2]; 72 hours post introduction): 100.0% | Means Dead ([2]; 72 hours post introduction): 100% | Means KD ([2]; 72 hours post introduction): 0.0% | Time required for greater than 90% killing [3]: 72 h | Means Affected ([3]; 30 minutes post introduction): 0.0% | Means Dead ([3]; 30 minutes post introduction): 0.0% | Means KD ([3]; 30 minutes post introduction): 0.0% | Means Affected ([3]; 1 hour post introduction): 0.0% | Means Dead ([3]; 1 hour post introduction): 0.0% | Means KD ([3]; 1 hour post introduction): 0.0% | Means Affected ([3]; 4 hours post introduction): 0.0% | Means Dead ([3]; 4 hours post introduction): 0.0% | Means KD ([3]; 4 hours post introduction): 0.0% | Means Affected ([3]; 24 hours post introduction): 83.3% | Means Dead ([3]; 24 hours post introduction): 0.0% | Means KD ([3]; 24 hours post introduction): 83.3% | Means Affected ([3]; 48 hours post introduction): 86.7% | Means Dead ([3]; 48 hours post introduction): 86.7% | Means KD ([3]; 48 hours post introduction): 0.0% | Means Affected ([3]; 72 hours post introduction): 90.0% | Means Dead ([3]; 72 hours post introduction): 90% | Means KD ([3]; 72 hours post introduction): 0.0% | Percent repellency [4]: 90.3% | Percent repellency ([4]; listed as Nootkatone (ethanol)): 90.3 ± 5.3% | Protection compared with ethanol alone (significance) ([4]; 1% nootkatone diluted in ethanol): not found to be significantly different from ethanol alone | Protection compared with untreated or ethanol alone (significance, α=0.05) [5, 7]: significantly higher protection | Protection level compared with 20% DEET (significance, α=0.05) [5, 7]: not significantly different from 20% DEET | Percent repellency ([5]; 1% Nootkatone in acetone): 80.1 ± 10.0% | Percent repellency ([5]; 1% Nootkatone in ethanol): 83.8 ± 5.5% | Protection compared with untreated or ethanol alone (significance, α=0.05) [6, 7]: significantly higher protection | Protection level compared with 20% DEET (significance, α=0.05) [6, 7]: not significantly different from 20% DEET | Percent repellency ([6]; 1% Nootkatone in acetone): 91.5 ± 2.1% | Percent repellency ([6]; 1% Nootkatone in ethanol): 92.0 ± 3.4%
